Like-named read-outs stand apart in the source and are kept apart here.
Assay: Mouse pharmacokinetics study and brain/plasma ratio
Format: in vivo, Male Crl:CD-1 (ICR) mice
Conditions: for half-life: read-out: t1/2 (elimination half-life) (converted); for AUC(0-inf): iv, 5 mg/kg
Description: Male Crl:CD-1 (ICR) mice (8 weeks old) weighing 25–30 g were housed in cages with ad libitum access to food and drinking water on a 12 : 12 h light-dark cycle. All animal experiments were performed in accordance with the guidelines approved by the Rosetta Pharmamate Institutional Animal Care and Use Committee (IACUC Approval No: AF20015). Mice were randomly divided into 7 subgroups (6 time points and 1 vehicle control; n = 3 per subgroup). LM-021 (in 5% DMSO and 19% hydroxypropyl-β-cyclodextrin) was administered intravenously (IV) at 5 mg/kg dose in volume of 10 ml/kg. Mice were euthanized in a CO2 chamber at 0.25, 0.5, 1, 2, 4, or 8 h postdose. Whole blood was collected via facial veins in heparin-coated polypropylene tubes, and plasma was obtained by centrifugation (1000 × g for 15 min at 4°C) within 60 min of collection. After cerebral vasculature perfusion through the left ventricle with normal saline for 5 min, the whole brain was quickly excised and weighed. Plasma and brain samples were rapidly frozen and stored at −70°C until analysis (see supplementary materials).
Pharmacokinetic (PK) parameters, including plasma concentration following IV dose (C0), elimination half-life (T1/2), mean residence time (MRT), and area under the concentration- (AUC-) time curve from time 0 extrapolated to infinity (AUC(0-∞)), were estimated using noncompartmental pharmacokinetic parameter analysis with Phoenix WinNonlin software (version 8.2, Pharsight Corporation, Mountain View, CA, USA). In addition, the ratio of brain/plasma was calculated from the area under the curve for brain and plasma concentrations.
Supplementary Description
Preparation and analysis of mouse plasma and brain homogenate samples. A solvent-based protein precipitation procedure was used for analyzing plasma and brain homogenate samples. A 20-μl aliquot of each plasma sample was mixed with 60 μl of acetonitrile. For brain samples, collected brains were homogenized in 3 volumes of methanol, and then 50 μl of brain homogenate was mixed with 50 μl of acetonitrile.
After vortexing and centrifugation (20,000 × g for 5 min), the extracted supernatants were collected. Liquid chromatography – tandem mass spectrometry (LC-MS/MS) analyses was performed using an Agilent 1200 (Agilent Technologies, Palo Alto, CA, USA) coupled to a QTrap 5500 triple-quadrupole mass spectrometer (AB SCIEX, Foster City, CA, USA). Chromatographic separation was performed on an Eclipse Plus C18 column (3.5 µm; 4.6 × 50 mm; Agilent Technologies) with the mobile phase performed at a constant flow rate of 1.0 ml/min using a binary solvent system: solvent A, 5 mM ammonium acetate; solvent B, acetonitrile. The transition (precursor ion to daughter ion) monitored was m/z 336.2 → 321.0 for LM-021. Multiple reaction monitoring (MRM) data were acquired, and the chromatograms were integrated using Analyst 1.6.3 software (Applied Biosystems). A weighted (1/x) linear regression was used to generate the calibration curves from standards and to calculate the sample […]
concentrations. […]

[1] = Crl:CD-1 (ICR), mouse, plasma, ICR male mice, IV 5 mg/kg

SMILES: CN(C)c1ccc(/C=C/C(=O)c2c(O)c3ccccc3oc2=O)cc1 [LM-021, (E)-3-(3-(4-(dimethylamino)phenyl)acryloyl)-4-hydroxy-2H-chromen-2-one]
- half-life (Crl:CD-1 (ICR), mouse, brain, ICR male mice, IV 5 mg/kg): 2.17 ± 0.67 h
- C0 [1]: 20400 ± 9480 ng/mL
- MRT [1]: 3.54 ± 0.93 h
- clearance [1]: 1.85 ± 0.12 mL/min/kg
- Vd (Crl:CD-1 (ICR), mouse, plasma, ICR male mice, IV 5 mg/kg, read-out: Vss): 0.39 ± 0.08 L/kg
- half-life [1]: 2.54 ± 0.79 h
- Brain/plasma ratio (calculated by the AUC(0-∞) ratios, ICR male mice, IV 5 mg/kg): 0.053
- Kp (male, Crl:CD-1 (ICR), mouse, brain and plasma, mice, IV 5 mg/kg): 0.053
- AUC(0-inf) (male, Crl:CD-1 (ICR), mouse, brain, brain (tissue density assumed 1 g/ml), ICR male mice, IV 5 mg/kg, read-out: AUC(0-∞)): 2380 ± 34 ng·h/mL
- AUC(0-inf) (male, Crl:CD-1 (ICR), mouse, brain, brain, mice, intravenous bolus 5 mg/kg, read-out: Systemic exposure (AUC0-∞)): 2380 ± 30 ng·h/mL
- AUC(0-inf) (male, Crl:CD-1 (ICR), mouse, plasma, plasma, ICR male mice, IV 5 mg/kg, read-out: AUC(0-∞)): 45300 ± 2830 ng·h/mL
- AUC(0-inf) (male, Crl:CD-1 (ICR), mouse, plasma, plasma, mice, intravenous bolus 5 mg/kg, read-out: Systemic exposure (AUC0-∞)): 45300 ± 2830 ng·h/mL
- Plasma clearance as share of cardiac output blood flow of mice (400 ml/min/kg) (mice, IV 5 mg/kg): about 0.5%
